Assay results: US20050181988A1, “Echinocandin cyclic peptide derivatives” (priority 2002, published 2005)
Like-named read-outs stand apart in the source and are kept apart here.

Test system: Candida albicans FP-633
Assay: In vitro antimicrobial activity: MICs in mouse serum by the microdilution method
Format: cell-based
Protocol: In vitro antimicrobial activity of the object compound of Example 23, 46, 58 and 63 disclosed later was determined by MICS in mouse serum as described below.
The MICs in mouse serum were determined by the microdilution method using ICR mouse serum buffered with 20 mM HEPES buffer (pH 7.3) as a test medium. Inoculum suspension of 10^6 cells/ml were prepared by a hemocytometric procedure and diluted to obtain an inoculum size of approximately 1.0×10^3 cells/ml. Microplates were incubated at 37° C. for 24 hours in 5% CO2. The MICs was defined as the lowest concentrations at which no visible growth was observed.

| SMILES | MIC (FP633, 24 h, pH 7.3, read-out: MIC (μg/ml), Candida albicans FP-633) [µg/mL] | MIC (FP633, microdilution in ICR mouse serum buffered with 20 mM HEPES (pH 7.3), inoculum approx. 1.0×10^3 cells/ml, 37° C., 24 hours, 5% CO2, lowest concentration with no visible growth, read-out: MIC (μg/ml), Candida albicans FP-633) [µg/mL] |
| --- | --- | --- |
| CCOCCOc1ccc(-c2ccc(-c3nnc(-c4ccc(C(=O)N[C@H]5C[C@@H](O)CNC(=O)[C@@H]6[C@@H](O)[C@@H](C)CN6C(=O)[C@H]([C@H](O)CCN)NC(=O)[C@H]([C@H](O)Cc6ccc(O)c(OCCCN)c6)NC(=O)[C@@H]6C[C@@H](O)CN6C(=O)[C@H]([C@@H](C)O)NC5=O)cc4)s3)cc2)cc1 [Example 46] | < 0.2 |  |
| C[C@@H](O)[C@@H]1NC(=O)[C@@H](NC(=O)c2ccc(-c3nnc(-c4ccc(N5CCN([C@H]6CC[C@@H](C)CC6)CC5)nc4)s3)cc2)C[C@@H](O)CNC(=O)[C@@H]2[C@@H](O)[C@@H](C)CN2C(=O)[C@H]([C@H](O)CCN)NC(=O)[C@H]([C@H](O)Cc2ccc(O)c(OCCN)c2)NC(=O)[C@@H]2C[C@@H](O)CN2C1=O [Example 58] |  | < 0.2 |
